Results on eleven compounds are retold here after ChEMBL document CHEMBL1152099, “C5-piperazinyl-1,4-benzodiazepines, water-soluble, orally bioa vailable CCKB/gastrin receptor antagonists” (Bioorg Med Chem Lett, 1995).

A word on the inhibition: it is the relative decrease from the control value, in per cent. A word on the pIC50: it is the IC50 on a negative log10 scale, so that one unit is a factor of ten. By half-life is commonly meant how long it takes for the measured level to halve. By Tmax is commonly meant the time from dosing to the highest level. The bioavailability is dose-corrected exposure relative to a reference, in per cent. Low readings indicate little systemic uptake, high ones much systemic uptake. As usually defined, the Cmax is the maximum level reached in the sampled fluid or tissue.

pIC50: −log10 of the molar value. Converted amounts (≈) assume the structure as drawn.

In data set [1] the target is T1, Cholecystokinin receptor type A (Rattus norvegicus) (UniProt P30551).
T1 sequence (whole entry): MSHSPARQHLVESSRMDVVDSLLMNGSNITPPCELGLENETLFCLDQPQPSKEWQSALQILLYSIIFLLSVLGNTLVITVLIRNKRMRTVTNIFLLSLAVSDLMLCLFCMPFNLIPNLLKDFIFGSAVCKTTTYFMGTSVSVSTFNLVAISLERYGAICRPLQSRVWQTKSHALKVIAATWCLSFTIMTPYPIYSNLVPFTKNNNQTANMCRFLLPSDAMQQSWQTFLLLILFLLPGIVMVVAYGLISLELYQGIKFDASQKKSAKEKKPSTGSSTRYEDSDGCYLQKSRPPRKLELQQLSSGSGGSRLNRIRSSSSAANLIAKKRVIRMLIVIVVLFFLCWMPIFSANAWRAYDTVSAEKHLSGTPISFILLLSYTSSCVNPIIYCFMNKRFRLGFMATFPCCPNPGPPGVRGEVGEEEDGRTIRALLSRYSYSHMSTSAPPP
The experiment in a line: Compound was tested for its binding affinity by measuring the displacement of [125I]-BH CCK-8S from CCKA receptor in rat pancreas at a concentration of 3000 nM. (Loss of bound radioactivity is the signal in a displacement assay; it reports binding, not function.)

For data set [2], the target named is T2, Cholecystokinin receptor type A (Rattus norvegicus, UniProt P30551).
T2 sequence (P30551 whole entry): T1 sequence (whole entry)
The data set can be described thus: Displacement of [125I]-BH CCK-8S from Cholecystokinin type A receptor in rat pancreas.

A short description of data set [3]: Compound was tested for solubility in water. The format is ADME. To be noted: read-out: S.
Data set [4] is described as follows: Plasma half-life was determined. The format is ADME, organism-based. The following applies: rat.
Data set [5] can be described thus: Tmax was determined. The format is ADME, organism-based. To be noted: rat, in vivo.
The nature of data set [6]: Bioavailability. The format is ADME, organism-based. To be noted: rat, in vivo.
Data set [7] is described as follows: Maximum plasma drug concentration was determined. The format is ADME, organism-based. The following applies: rat.
A further data set is filed under the species Rattus norvegicus. The data set can be described thus: Compound was tested for its ability to block pentagastrin-induced single cell firing rate of rat ventromedial hyphalamic (VMH) neurons. The format is functional.

In data set [1], `CCCN1C(=O)C(NC(=O)Nc2cccc(OC)c2)N=C(N2CCN(C)CC2)c2ccccc21` (configuration not stated) showed an inhibition of 15%. This compound also gave a pIC50 in data set [2] of under 5.52.

The compound `CCCN1C(=O)C(NC(=O)Nc2cccc(CC)c2)N=C(N2CCN(C)CC2)c2ccccc21` (configuration not stated) came in with an inhibition in data set [1] of 46%. This compound gave a pIC50 in data set [2] of under 5.52.

In the case of `CCCc1cccc(NC(=O)NC2N=C(N3CCN(C)CC3)c3ccccc3N(CCC)C2=O)c1` (configuration not stated), the pIC50 in data set [2] is 5.27.

In data set [2], `Cc1cccc(NC(=O)N[C@@H]2N=C(c3ccccc3)c3ccccc3N3C[C@H](C)N=C23)c1` had a pIC50 of 5.81.

As for `CCCN1C(=O)[C@@H](NC(=O)Nc2cccc(C)c2)N=C(N2CCN(C)CC2)c2ccccc21`, the pIC50 in data set [2] was 5.72.

Consider `CCCN1C(=O)C(NC(=O)Nc2cccc(C)c2)N=C(N2CCN(C)CC2)c2ccccc21` (configuration not stated), for which the pIC50 in data set [2] is 5.49.

For the compound `Cc1cccc(NC(=O)NC2N=C(N3CCN(C(=O)OC(C)(C)C)CC3)c3ccccc3N(C)C2=O)c1` (configuration not stated), in data set [1], the inhibition was 0%. The pIC50 in data set [2] is under 5.52.

With `Cc1cccc(NC(=O)NC2N=C(N3CCNCC3)c3ccccc3N(C)C2=O)c1` (configuration not stated), the inhibition in data set [1] worked out at 3%. In data set [2], this compound gave a pIC50 of under 5.52.

`Cc1cccc(NC(=O)NC2N=C(N3CCN(C)CC3)c3ccccc3N(C)C2=O)c1` (configuration not stated): the negative logarithm of the IC50 (pIC50) in data set [2] is 5.37.

Turning to `CCCN1C(=O)C(NC(=O)Nc2cccc(C(F)(F)F)c2)N=C(N2CCN(C)CC2)c2ccccc21` (configuration not stated), the pIC50 in data set [2] was 5.42.

Turning to `CCCN1C(=O)[C@H](NC(=O)Nc2cccc(C)c2)N=C(N2CCN(C)CC2)c2ccccc21`, the solubility in data set [3] is 600 µg/mL (≈ 1340 µM). For the same compound, in data set [4], the half-life is 55 min. Further, the Tmax in data set [5] is 5 min. This compound yielded a bioavailability in data set [6] of 51%. In data set [7], the peak level (Cmax) was 469 ng/mL. The compound also yielded an inhibition in data set [1] of 11%. The same compound showed a pIC50 in data set [2] of under 5.52. This compound also displayed a Kb in the data set listed under Rattus norvegicus of 0.0018 µM.
